The text below walks through data of patent US6060462A, “Electrophilic peptide analogs as inhibitors of trypsin-like enzymes” (DuPont Pharmaceuticals Company, priority 1997, dated 2000).

One experiment relates to Thrombin time. Kind of experiment: Thrombin time (IC50), Table 80.
A further experiment addresses human thrombin (Homo sapiens, UniProt P00734). Nature of the experiment: Inhibition of thrombin hydrolysis of chromogenic substrate S2238 (Ki). The class given is biochemical. On the set-up: 0.2-0.5 nM human thrombin or human factor Xa; purchased Enzyme Research Laboratories, South Bend, Ind. To be noted: purified human thrombin, 0.10 M sodium phosphate buffer, pH 7.5, read-out: Ki values for inhibition of Serine Proteases: Trombin. The procedure, abridged:
(§1)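 Purified human proteases hydrolysed chromogenic substrates (thrombin S2238, Xa S2222, VIIa S2288), followed at 405 nm. Thrombin/Xa buffer: 0.10 M sodium phosphate pH 7.5, 0.20 M NaCl, 0.5% PEG 8000; VIIa: 0.05 M Tris pH 7.6, 0.10 M NaCl, 4 mM CaCl2, 0.1% BSA. Ki from velocities at 25–30 min.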

Another experiment concerns the target T1, human factor Xa (Homo sapiens, UniProt P00742).
T1 construct: 0.2-0.5 nM human thrombin or human factor Xa; purchased Enzyme Research Laboratories, South Bend, Ind
Nature of the experiment: Inhibition of Factor Xa hydrolysis of chromogenic substrate S2222 (Ki). In kind it is biochemical. To be noted: purified human factor Xa, 0.10 M sodium phosphate buffer, pH 7.5, read-out: Ki values for inhibition of Serine Proteases: Factor Xa. How it is done:
The effectiveness of compounds of the present invention as inhibitors of blood coagulation proteases was determined using purified human proteases and synthetic substrates following procedures similar to those described in Kettner et al. (1990).
For these assays, the rate of enzymatic (thrombin, Factor Xa, and Factor VIIa) hydrolysis of chromogenic substrates (S2238 (H-D-Phe-Pip-Arg-pNA), S2222, and S2288, respectively; Kabi Pharmacia, Franklin, Ohio) was measured both in the absence and presence of compounds of the present invention. […] A decrease in the rate of absorbance change at 405 nm in the presence of inhibitor is indicative of enzyme inhibition. The results of this assay are expressed as inhibitory constant, Ki.
Thrombin and Xa determinations were made in 0.10 M sodium phosphate buffer, pH 7.5, containing 0.20 M NaCl, and 0.5% PEG 8000. VIIa determinations were made in 0.05 M tris buffer, pH 7.6, containing 0.10 M NaCl, 4 mM CaCl2, and 0.1% bovine serum albumin.
Reactions were allowed to go for 30 minutes and the velocities (rate of absorbance change vs time) were measured in the time frame of 25-30 minutes. The following relationship was used to calculate Ki values. [formula] where: vo is the velocity of the control in the absence of inhibitor;
vs is the velocity in the presence of inhibitor;
I is the concentration of inhibitor;
Ki is the dissociation constant of the enzyme: inhibitor complex;
S is the concentration of substrate;
Km is the Michaelis constant.

For the next experiment, the target named is T2, human factor VIIa (Homo sapiens, UniProt P08709).
T2 construct: 50 nM human factor VIIa (BiosPacific, Emeryville, Calif.); purchased BiosPacific, Emeryville, Calif
T2 sequence (P08709 213-466 limits assumed): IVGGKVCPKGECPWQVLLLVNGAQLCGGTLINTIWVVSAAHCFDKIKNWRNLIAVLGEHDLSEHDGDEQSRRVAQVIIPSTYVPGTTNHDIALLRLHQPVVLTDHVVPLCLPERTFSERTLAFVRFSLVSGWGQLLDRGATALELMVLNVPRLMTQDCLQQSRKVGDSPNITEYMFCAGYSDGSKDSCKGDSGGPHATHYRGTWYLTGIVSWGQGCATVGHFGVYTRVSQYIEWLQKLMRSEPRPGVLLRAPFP
T2 sequence (P08709 61-212 partner limits assumed): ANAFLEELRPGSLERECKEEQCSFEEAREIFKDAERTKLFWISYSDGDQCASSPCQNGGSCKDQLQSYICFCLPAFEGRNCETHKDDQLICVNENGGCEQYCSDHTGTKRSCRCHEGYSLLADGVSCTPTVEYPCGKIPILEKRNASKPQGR
Kind of experiment: Inhibition of Factor VIIa hydrolysis of chromogenic substrate S2288 (Ki). In kind it is biochemical. To be noted: purified human factor VIIa, 0.05 M tris buffer, pH 7.6, read-out: Ki values for inhibition of Serine Proteases: Factor VIIa. The procedure, abridged:
as §1

Structures can show the parent of a compound that is named as a salt.

T1 sequence (P00742 235-488 limits assumed): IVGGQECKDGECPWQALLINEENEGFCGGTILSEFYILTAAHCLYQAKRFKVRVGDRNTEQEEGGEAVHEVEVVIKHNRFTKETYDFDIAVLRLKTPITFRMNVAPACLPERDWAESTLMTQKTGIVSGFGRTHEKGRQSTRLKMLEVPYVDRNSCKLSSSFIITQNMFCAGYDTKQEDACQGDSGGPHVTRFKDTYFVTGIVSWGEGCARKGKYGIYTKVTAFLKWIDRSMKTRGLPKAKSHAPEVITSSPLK
T1 sequence (P00742 41-179 partner limits assumed): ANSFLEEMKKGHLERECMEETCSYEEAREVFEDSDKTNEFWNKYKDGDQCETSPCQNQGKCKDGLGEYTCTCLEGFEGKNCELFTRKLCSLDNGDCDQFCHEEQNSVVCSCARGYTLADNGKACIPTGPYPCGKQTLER

Turning to “Hydrocinnamoyl-[N-(N-(Methyl)-Phenyl)-Gly]-boroLys--OH HCl [Example 53.2.1]”, in the experiment with Thrombin time, the IC50 is under 50000 nM. The Ki on human thrombin was under 500 nM.
For the compound “2-Thiophenyl-Benzoyl-Sar-boroLys(CH=NH)-C10H16 [Example 63.4.2]”, the Ki is under 500 nM at human factor Xa, under 50000 nM on human factor VIIa and under 500 nM at human thrombin. Besides, the IC50 in the experiment on Thrombin time was under 50000 nM.
As to `CN(CC(=O)NC(CCCCN)B1OC2CC3CC(C3(C)C)C2(C)O1)C(=O)c1ccccc1Sc1ccccc1C#N` (centres unmarked) [Example 62.4.3, (2-(2-Cyano)-Thiophenyl)-Benzoyl-Sar-boroLys-C10H16 HCl], the Ki at human factor Xa was under 500 nM; on human factor VIIa it was under 50000 nM; at human thrombin it was under 500 nM. For the same compound, the IC50 with Thrombin time was under 50000 nM.
In the case of `COC(=O)CCC(=O)N(CCc1ccccc1)CC(=O)NC(CCCCN)B(O)O` (centres unmarked) [Example 68.3.3, Methyl Succinyl-[N-(Phenethyl)-Gly]-boroLys--OH HCl], the figures for the Ki on human factor Xa, on human factor VIIa and on human thrombin were under 50000 nM, under 50000 nM and under 500 nM, respectively. Moreover, in the experiment on Thrombin time, the IC50 is under 50000 nM.
“2-Benzyl-(N-Benzyl)-Sar-boroLys--C10 H16 HCl [Example 64.1.1]”: the Ki on human factor Xa is under 50000 nM; on human factor VIIa, under 50000 nM; at human thrombin it was under 500 nM. In the experiment with Thrombin time, the “IC50 Thrombin time” value is “Inactive”.
In the case of `CC1(C)C2CC3OB(C(CCCCN)NC(=O)CN(C(=O)CCc4ccccc4)C4CC4)OC3(C)C1C2` (centres unmarked) [Example 54.4.2, Hydrocinnamoyl-[N-(Cyclopropyl)-Gly]-boroLys-C10H16 HCl], the values for the Ki on human factor Xa, at human factor VIIa and at human thrombin were under 50000 nM, under 500 nM and under 500 nM, respectively. In the experiment on Thrombin time, this compound came in with an IC50 of under 500 nM.
With “Hydrocinnamoyl-[N-(Cyclopropyl)-Gly]-boroOrn(CH=NH)--OH HCl [Example 57.4.2]”, the Ki on human factor Xa is under 50000 nM; at human thrombin, under 500 nM. In the experiment with Thrombin time, the IC50 is under 500 nM.
Consider `CC1(C)C2CC3OB(C(CCCCN)NC(=O)CN(C(=O)CCc4ccccc4)C4CCCCC4)OC3(C)C1C2` (centres unmarked) [Example 54.4.3, Hydrocinnamoyl-[N-(Cyclohexyl)-Gly]-boroLys-C10H16 HCl], for which the Ki at human factor Xa is under 50000 nM; at human factor VIIa it was under 500 nM; on human thrombin, under 500 nM. In the experiment with Thrombin time, this compound registered an IC50 of under 50000 nM.
`CN(CC(=O)NC(CCCCN)B1OC2CC3CC(C3(C)C)C2(C)O1)Cc1ccccc1Cn1cccc1` (centres unmarked) [Example 64.1.3, Pinanediol N-{N-methyl-N-[2-(pyrrol-1-ylmethyl)-Benzyl]glycyl}-1-amido-5-aminopentaneboronate, hydrochloride salt]: in the experiment with Thrombin time, the 50% inhibitory concentration (IC50) is under 50000 nM. Moreover, at human thrombin, the Ki was under 500 nM.
For `CC1(C)C2CC3OB(C(CCCCN)NC(=O)CN(C(=O)Cc4cccs4)C4CC4)OC3(C)C1C2` (centres unmarked) [Example 79.1.3, Thiophenacetyl-[N-(Cyclopropyl)-Gly]-boroLys-C10H16 HCl], in that order: under 500 nM and under 500 nM.
For “Hydrocinnamoyl-[N-(N(CH3)2)-Gly]-boroLys--OH HCl [Example 72.1.3]”, the IC50 in the experiment with Thrombin time is under 500 nM. In addition, on human thrombin, the Ki was under 500 nM.
Take `CC1(C)C2CC3OB(C(CCCCN)NC(=O)CN(CCc4ccccc4)C(=O)CNS(C)(=O)=O)OC3(C)C1C2` (centres unmarked) [Example 69.3.2, Methanesulfonyl-Gly-[N-(Phenethyl)-Gly]-boroLys-C10H16 HCl]: the Ki on human factor Xa, on human factor VIIa and on human thrombin was under 500 nM each time. For the same compound, the IC50 with Thrombin time was under 500 nM.
For “2-(Thiophenyl)-Benzoyl-Sar-boroOrn(CH=NH)-C10H16 HCl [Example 63.4.1]”, the Ki at human factor Xa was under 500 nM; at human factor VIIa, under 50000 nM; at human thrombin, under 500 nM. Further, the IC50 in the experiment on Thrombin time is under 500 nM.
Take “Hydrocinnamoyl-[N-(N(CH3)2)-Gly]-boroOrn(CH=NH)-C10H16 HCl [Example 50.1.2]”: the IC50 in the experiment with Thrombin time is under 500 nM. In addition, the Ki at human thrombin is under 500 nM.
`CN(c1ccccc1)N(CC(=O)NC(CCCCN)B1OC2CC3CC(C3(C)C)C2(C)O1)C(=O)CCc1ccccc1` (centres unmarked) [Example 54.2.1, Hydrocinnamoyl-[N-(N-(Methyl)-Phenyl)-Gly]-boroLys-C10H16 HCl] registered an IC50 in the experiment on Thrombin time of under 50000 nM. In addition, at human thrombin, the Ki is under 500 nM.
With `CN=C(N)NCCCC(NC(=O)CN(CCc1ccccc1)C(=O)CCc1ccccc1)B1OC2CC3CC(C3(C)C)C2(C)O1` (centres unmarked) [Example 49.2.1, Hydrocinnamoyl-[N-(Phenethyl)-Gly]-boroArg(CH3)-C10H16 HCl], the Ki at human factor Xa and on human thrombin was under 500 nM throughout. Moreover, the IC50 in the experiment with Thrombin time is under 50000 nM.
As for `CC1(C)C2CC3OB(C(CCCCN)NC(=O)CN(C(=O)COc4ccccc4)C4CC4)OC3(C)C1C2` (centres unmarked) [Example 79.1.2, Phenoxyacetyl-[N-(Cyclopropyl)-Gly]-boroLys-C10H16 HCl], the half-inhibitory concentration (IC50) in the experiment with Thrombin time is under 500 nM. Besides, the Ki on human thrombin is under 500 nM.
`NCCCCC(NC(=O)CN(C(=O)CCc1ccccc1)C1CC1)B(O)O` (centres unmarked) [Example 59.4.2, Hydrocinnamoyl-[N-(Cyclopropyl)-Gly]-boroLys--OH HCl]: the Ki on human factor Xa is under 50000 nM; at human thrombin, under 500 nM. In the experiment on Thrombin time, this compound displayed an IC50 of under 500 nM.
Regarding `N=CNCCCC(NC(=O)CN(CCc1ccccc1)C(=O)CCc1ccccc1)B(O)O` (centres unmarked) [Example 49.1.3, Hydrocinnamoyl-[N-(Phenethyl)-Gly]-boroOrn(CH=NH)--OH HCl], the Ki on human factor Xa and at human thrombin was under 500 nM in each case. Further, the IC50 in the experiment on Thrombin time is under 500 nM.
`CN(CC(=O)NC(CCCCN)B(O)O)Cc1ccccc1Cn1cccc1` (centres unmarked) [Example 65.1.3, N-{N-methyl-N-[2-(pyrrol-1-ylmethyl)-Benzyl]glycyl}-1-amido-5-aminopentaneboronic acid, hydrochloride salt] showed an IC50 with Thrombin time of under 50000 nM. Further, the inhibition constant (Ki) at human thrombin is under 500 nM.
For “Hydrocinnamoyl-[N-(N-(Methyl)-Benzyl)-Gly]-boroLys-C10H16 HCl [Example 54.2.2]”, in that order: under 50000 nM and under 500 nM.
On the same counts, the results for `NCCCCC(NC(=O)CN(C(=O)Cc1cccs1)C1CC1)B(O)O` (centres unmarked) [Example 78.1.3, Thiophenacetyl-[N-(Cyclopropyl)-Gly]-boroLys--OH HCl] are under 500 nM and under 500 nM.
With `COC(=O)CCC(=O)N(CC(=O)NC(CCCCN)B1OC2CC3CC(C3(C)C)C2(C)O1)C(=O)CCc1ccccc1` (centres unmarked) [Example 54.3.1, Hydrocinnamoyl-[N-(Methyl Succinyl)-Gly]-boroLys-C10H16 HCl], the Ki at human factor Xa was under 50000 nM; at human factor VIIa it was under 50000 nM; at human thrombin, under 500 nM.
In turn, “Hydrocinnamoyl-[N-(Phenethyl)-Gly]-boroOrn(CH=NH)-C10H16 HCl [Example 49.1.2]” came in with an IC50 in the experiment on Thrombin time of under 500 nM. In addition, at human thrombin, the Ki was under 500 nM.
Consider `CN(CC(=O)NC(CCCCN)B1OC2CC3CC(C3(C)C)C2(C)O1)C(=O)c1ccccc1Cc1cccc(Cl)c1` (centres unmarked) [Example 64.2.3, 2-(3-chlorobenzyl)-benzoyl-Sar-Borolys C10 H16.HCl], for which the Ki on human factor Xa, at human factor VIIa and on human thrombin was under 500 nM throughout.
In the experiment on Thrombin time, `NCCCCC(NC(=O)CN(C(=O)COc1ccccc1)C1CC1)B(O)O` (centres unmarked) [Example 78.1.2, Phenoxyacetyl-[N-(Cyclopropyl)-Gly]-boroLys--OH HCl] returned an IC50 of under 500 nM. Besides, on human thrombin, the Ki was under 500 nM.

In general, IC50 refers to the concentration at which inhibition is half-maximal. A lower IC50 goes with greater potency in that assay. What is called Ki is a measure of affinity in units of concentration, obtained from inhibition or displacement.
